Measurements from patent publication US20230406831A1, “COMPOUNDS AND METHODS OF INHIBITING BACTERIAL CHAPERONIN SYSTEMS” (THE TRUSTEES OF INDIANA UNIVERSITY, priority 2020, published 2023).

Legend:
GroEL/ES = target: T1, GroEL/ES (Escherichia coli, UniProt P0A6F5); test: GroEL/ES-mediated dMDH refolding assay; type: biochemical, E. coli; details: Table 3; 37° C., 1 mM ATP; read-out: Biochemical Assay IC50 GroEL/ES-dMDH Refolding
T1 construct: made in house; host or cells: GroEL in E. coli DH5a; GroES in E. coli BL21 (DE3)
Experimental: (§1) Evaluation of compounds ability to inhibit GroEL/ES and HSP60/10-mediated dMDH refolding assays.
(§2) Reagent preparation: For these assays, four primary reagent stocks were prepared: 1) GroEL/ES-dMDH or HSP60/10-dMDH binary complex stock; 2) ATP initiation stock; 3) EDTA quench stock; 4) MDH enzymatic assay stock. Denatured MDH (dMDH) was prepared by 2-fold dilution of MDH (5 mg/ml, soluble pig heart MDH from Roche, product #10127248001) with denaturant buffer (7 M guanidine-HCl, 200 mM Tris, pH 7.4, and 50 mM DTT). MDH was completely denatured by incubating at room temperature for 45 min. The binary complex solutions were prepared by slowly adding the dMDH stock to a stirring stock with GroEL (or HSP60) in folding buffer (50 mM Tris-HCl, pH 7.4, 50 mM KCl, 10 mM MglC2, and 1 mM DTT), followed by addition of GroES (or HSP10). The binary complex stocks were prepared immediately prior to dispensing into the assay plates and had final protein concentrations of 83.3 nM GroEL (Mr 800 kDa) or HSP60 (Mr 400 kDa), 100 nM GroES or HSP10 (Mr 70 kDa), and 20 nM dMDH in folding buffer. For the ATP initiation stock, ATP solid was diluted into folding buffer to a final concentration of 2.5 mM. Quench solution contained 600 mM EDTA (pH 8.0). The MDH enzymatic assay stock consisted of 20 mM sodium mesoxalate and 2.4 mM NADH in reaction buffer (50 mM Tris-HCl, pH 7.4, 50 mM KC1, and 1 mM DTT).
(§3) Assay Protocol: First, 30 μL aliquots of the GroEL/ES-dMDH or HSP60/10-dMDH binary complex stocks were dispensed into clear, 384-well polystyrene plates. Next, 0.5 μL of the compound stocks (10 mM to 4.6 μM, 3-fold dilutions series in DMSO) were added by pin-transfer (V&P Scientific). The chaperonin-mediated refolding cycles were initiated by addition of 20 IA of ATP stock (reagent concentrations during refolding cycle: 50 nM GroEL or HSP60, 60 nM GroES or HSP10, 12 nM dMDH, 1 mM ATP, and compounds of 100 μM to 46 nM, 3-fold dilution series). The refolding reactions were incubated at 37° C. The incubation time was determined from refolding time-course control experiments until they reached ˜90% completion of refolding cycle — generally ˜20-40 min for GroEL/ES, and ˜40-60 min for HSP60/10). Next, the assay was quenched by addition of 10 μL of the EDTA to final concentration of 100 mM. […] A340 nm measurements were recorded at 0.5 minutes (start point) and at successive time points until the amount of NADH consumed reached ˜90% (end point, generally between 20-35 minutes). The differences between the start and end point A340 values were used to calculate the % inhibition of the GroEL/ES or HSP60/10 machinery by the compounds. IC50 values for the test compounds were obtained by plotting the % inhibition results in GraphPad Prism 6 and analyzing by non-linear regression using the log (inhibitor) vs. response (variable slope) equation. Results presented represent the averages of IC50 values obtained from at least quadriplicate (duplicate of duplicate) replicates. For results, see Tables 1, 2, and 3.

HSP60/10 = target: T2, HSP60/10 (Homo sapiens, UniProt P10809); test: HSP60/10-mediated dMDH refolding assay; type: biochemical; details: Table 3; 37° C., 1 mM ATP; read-out: Biochemical Assay IC50 HSP60/10-dMDH Refolding
T2 construct: octa-Histidine (His8) tag, TEV-cleavable (N, cleaved yes); made in house; host or cells: HSP60 in Rosetta 2 (DE3) E. coli; HSP10 in Rosetta 2 (DE3) pLysS
Experimental: as §1, §2, §3

[1] = HEK 293 kidney cell viability / cytotoxicity assay (Alamar Blue); type: cell-based; details: human, HEK 293 kidney cells; Table 3; 48 h incubation, Alamar Blue; read-out: HEK 293 Kidney Cell Viability CC50
Experimental: Evaluating compound effects on kidney cell viability.
HEK 293 cells were maintained in MEM medium (Corning Cellgro, 10-009 CV) supplemented with 10% FBS (Sigma, F2242). […] Cells at 80% confluence were harvested and diluted in growth medium, then 45 μL of the HEK 293 cells (1,500 cells/well) were dispensed per well, and plates were sealed with “Breathe Easy” oxygen permeable membranes (Diversified Biotech) and incubated at 37° C., 5% CO2, for 24 h. […] Plates were sealed with “Breathe Easy” oxygen permeable membranes and incubated for an additional 48 h at 37° C. and 5% CO2. The Alamar Blue reporter reagents were then added to a final concentration of 10%, the plates incubated at 37° C. and 5% CO2, and sample fluorescence (535 nm excitation, 590 nm emission) was read using a Molecular Devices FlexStation II 384-well plate reader (readings taken between 4-24 h of incubation so as to achieve signals in the 30-60% range for conversion of resazurin to resorufin). Cell viability was calculated as per vendor instructions (Thermo Fisher—Alamar Blue cell viability assay manual).

S. aureus = S. aureus bacterial proliferation assay; type: cell-based; details: Staphylococcus aureus; Table 3; cation adjusted BHI media, OD600 at 6-8 h; read-out: S. aureus Proliferation EC50
Experimental: Evaluation of compounds for inhibition of bacterial cell proliferation.
Growth Media: S. aureus bacteria were grown in Brain Heart Infusion (BHI) broth/agar (Becton, Dickinson and Company). All liquid cultures were grown in BHI media supplemented with 25 mg/L Ca^2+ and 12.5 mg/L Mg^2+ to mimic free physiological concentrations of these cations. A 10 mg/mL Ca^2+ stock solution was prepared by dissolving 3.68 g of CaCl2·2H^2O in 100 mL of deionized water, and a 10 mg/mL Mg^2+ stock solution was prepared by dissolving 8.36 g of […] in 100 mL deionized water. Both stock solutions were filter-sterilized using 0.2 μm pore size cellulose-acetate filters. 2.5 mL of the sterile 10 mg/mL Ca^2+ stock and 1.25 mL of the sterile 10 mg/mL Mg^2+ stock solutions were added per 1 L of autoclaved BHI medium to obtain 25 mg/L Ca^2+ and 12.5 mg/L Mg^2+ ions, respectively.
General Assay Protocol: Stock bacterial cultures were streaked onto BHI agar plates and grown overnight at 37° C. Fresh aliquots of broth were inoculated with single bacterial colonies and the cultures were grown overnight at 37° C. with shaking (240 rpm) in cation adjusted BHI media. The following morning, the overnight cultures were sub-cultured (1:5 dilution) into fresh aliquots of cation adjusted BHI media and grown at 37° C. for 1-2 hours with shaking. After 2 h, cultures were diluted into fresh media to achieve final OD600 readings of 0.017. Aliquots of these diluted cultures (30 μL) were added to clear, flat-bottom, 384-well polystyrene plates that were stamped with 0.5 μL of test compounds in 20 μL media. Compounds were evaluated in dose-response format where the inhibitor concentration range during the proliferation assay was 100 μM to 46 nM (3-fold dilution series). Plates were sealed with “Breathe Easy” oxygen permeable membranes (Diversified Biotech) and left to incubate at 37° C. without shaking (stagnant assay). OD600 nm readings were taken generally at 6-8 h, when bacteria had reached log-phase growth. A second set of baseline control plates were prepared analogously, but without any bacteria added, to correct for possible compound absorbance and/or precipitation. Plates were then read at 600 nm using a Molecular Devices SpectraMax Plus384 microplate reader. EC50 values for the test compounds were obtained by plotting the OD600 results in GraphPad Prism and analyzing by non-linear regression using the log(inhibitor) vs. response (variable slope) equation. For results, see Tables 1, 2, and 3.

T2 sequence (P10809 27-573): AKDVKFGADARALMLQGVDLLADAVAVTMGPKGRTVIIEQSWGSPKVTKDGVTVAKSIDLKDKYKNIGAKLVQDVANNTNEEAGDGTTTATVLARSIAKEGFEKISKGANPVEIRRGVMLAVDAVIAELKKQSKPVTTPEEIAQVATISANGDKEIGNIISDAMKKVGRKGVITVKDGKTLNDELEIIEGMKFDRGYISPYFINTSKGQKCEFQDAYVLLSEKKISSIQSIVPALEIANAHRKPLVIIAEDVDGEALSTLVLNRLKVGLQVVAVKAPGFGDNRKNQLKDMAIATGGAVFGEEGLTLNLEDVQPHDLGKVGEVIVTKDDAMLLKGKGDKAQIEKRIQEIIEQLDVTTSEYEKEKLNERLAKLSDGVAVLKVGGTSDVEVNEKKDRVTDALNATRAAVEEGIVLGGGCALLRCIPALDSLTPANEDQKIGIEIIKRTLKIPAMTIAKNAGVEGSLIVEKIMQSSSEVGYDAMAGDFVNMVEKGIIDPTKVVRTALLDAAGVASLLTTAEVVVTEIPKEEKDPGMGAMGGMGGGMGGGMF
T1 sequence (P0A6F5 2-548): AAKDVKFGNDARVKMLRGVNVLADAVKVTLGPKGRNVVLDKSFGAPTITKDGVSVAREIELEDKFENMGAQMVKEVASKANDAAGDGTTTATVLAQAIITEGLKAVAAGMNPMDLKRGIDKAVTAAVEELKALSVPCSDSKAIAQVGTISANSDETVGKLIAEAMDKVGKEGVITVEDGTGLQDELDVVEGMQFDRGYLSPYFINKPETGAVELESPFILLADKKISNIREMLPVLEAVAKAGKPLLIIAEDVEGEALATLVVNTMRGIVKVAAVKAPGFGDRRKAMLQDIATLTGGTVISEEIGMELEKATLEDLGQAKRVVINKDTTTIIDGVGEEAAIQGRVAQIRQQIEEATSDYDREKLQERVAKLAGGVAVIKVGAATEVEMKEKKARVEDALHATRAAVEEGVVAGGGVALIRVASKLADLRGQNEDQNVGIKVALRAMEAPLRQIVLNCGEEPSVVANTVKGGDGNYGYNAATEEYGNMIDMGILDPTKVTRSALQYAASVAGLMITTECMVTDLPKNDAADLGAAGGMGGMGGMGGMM

O=C(O)c1ccc(NC(=O)c2cc(Cl)ccc2O)cc1 [Compound 109, 4-(5-chloro-2-hydroxybenzamido)benzoic acid]
> 100 µM: IC50 (GroEL/ES) | IC50 (HSP60/10) | CC50 at 48 h [1] | EC50 (S. aureus)
